Assay results reported in patent US20220257722A1, “COMPOSITIONS AND METHODS OF TREATING AND PREVENTING SYSTEMIC COMPLICATIONS OF ACUTE ILLNESS” (United States Government As Represented By The Department …, priority 2019, published 2022).

Tests used:
rat jejunal mucosa = assay: LPS mucosal-to-serosal transport in Ussing-chambered rat jejunal mucosa (LAL test); format: cell-based; conditions: for OA/TCA-augmented LPS transport (t=30-45 min): mucosal LPS 10 μg/ml + OA 30 mM/TCA 0.1 mM; for OA/TCA-augmented LPS transport (t=30-45 min) / LPS transport at t=15 min (LPS alone, absence of OA/TCA): drug added 10 or 15 min before LPS; for LPS transport at t=15 min (LPS alone, absence of OA/TCA): mucosal LPS 10 μg/ml
Description: Short-circuit current measurements in Ussing chambered preparations. Mucosa-submucosa preparations were prepared from the mid-jejunum (˜20 cm from the pyloric ring) by muscle stripping using fine forceps under a stereomicroscope. Two or four preparations were prepared from one animal. The tissue was then mounted between two hemi-sliders with an aperture=0.3 cm^2 (Physiologic Instruments, San Diego, Calif., USA). Chambers were bathed with serosal and luminal bathing solutions in a volume of 4 ml each, maintained at 37° C. using a water recirculating heating system. The serosal Krebs-Ringer solution contained (in mM) NaCl, 117; KCl, 4.7; MgCl2, 1.2; NaH2PO4, 1.2; CaCl2, 2.5; NaHCO3, 25; glucose, 11; and bubbled with 95% O2-5% CO2 to maintain pH at 7.4. The luminal bathing solution contained NaCl, 136; KCl, 2.6; CaCl2, 1.8; HEPES, 10 (pH 7.0); mannitol, 11; and bubbled with 100% O2. The tissues were short-circuited by a voltage clamp (VCC MC6, Physiologic Instruments) at zero potential difference with automatic compensation for solution resistance. Short-circuit current (Isc) was continuously measured with tissue conductance (Gt) and TEER (Ω·cm^2) determined every 20 sec in order to assess the tissue integrity during the LPS and lipid exposure. The current was recorded by the DataQ system (Physiologic Instruments). IND (10 μM) was added to the serosal bath to eliminate the effects of endogenous prostaglandin production. The tissues were stabilized for ˜30 min before the addition of test chemicals.
LPS movement from mucosal to serosal solution. LPS movement m-to-s was assessed using a LAL test kit (Pierce Chromogenic Endotoxin Quant Kit, Pierce Biotechnology, Rockford, Ill., USA), which eliminates non-specific detection of (1,3)-β-D-glucan, then reduces false-positive LPS measurements. After tissue stabilization, time was set as t=0 min. Fifty μl of the serosal solution was collected at 0 min as a blank sample, followed by collection at t=15, 30 and 45 min. At t=0 min, LPS (10 μg/ml) was added into the mucosal solution. Vehicle (PBS alone), TCA alone (0.1 mM) in PBS or OA (3, 10, 30 mM) with TCA (0.1 mM) in PBS was added into the mucosal solution at t=15 min. The tissues were pretreated with drugs 10 or 15 min before the addition of LPS (i.e. at t=−10 or −15 min). The collected serosal solutions were kept at −80° C. until use. LPS content in the serosal solutions was measured with the LAL test according to the manufacturer's protocol. The value of background at t=0 min was subtracted and the serosal LPS appearance was expressed as Δ[LPS] (EU/ml). In some experiments, FITC-LPS (10 μg/ml) was used instead of LPS. Serosal FITC-LPS content was assessed by FITC fluorescence intensity measurement using a multi-mode microplate reader (Synergy-2, BioTek Instruments, Inc., Winooski, Vt., USA). To detect macromolecule m-to-s movement across the mucosa, FD4 (0.1 mM) was applied into the mucosal bath and serosal FD4 content was assessed by FITC fluorescence intensity measurement.
Ussing chamber study: drug treatment. The following drugs were pretreated by addition to the mucosal (m) or serosal (s) bath 10 or 15 min before LPS addition to the mucosal bath: the lipid raft inhibitor MβCD (1 mM, m), the CD36 inhibitor SSO (0.1 mM, m), the muscarinic agonist CCh (10 μM, s), a competitive substrate for IAP (IAP inhibitor) GP (10 mM, m) (47), GLP-2 (100 nM, s), the dipeptidyl peptidase-4 (DPP4) inhibitor NVP-728 (10 μM, s) (36), the stable GLP-2 analog TDG (100 nM) (13), the insulin-like growth factor-1 (IGF-1) receptor tyrosine kinase inhibitor NVP-AEW-541 (10 μM, s) (22), the epidermal growth factor (EGF) tyrosine kinase inhibitor PD153035 (1 μM, s) (6), the nitric oxide (NO) synthase (NOS) inhibitor L-NAME (0.1 mM, s) and the selective VPAC1 antagonist PG97-269 (1 μM) (26).

rat small intestine = assay: LPS-induced small intestinal FD4 paracellular permeability in vivo (PV and arterial FD4); conditions: for TDG-induced inhibitory effect on PV FD4 levels: LPS 6 hr + TDG 6 hr
Description: LPS treatment. Animals were treated with LPS (5 mg/kg, ip) once at 9 am. For the acute experiments, the animals were fasted overnight and were treated with LPS 1, 3, or 6 hr before the anesthesia for small intestinal perfusion of FD4 as described herein. For the 24-hr experiments, the animals fed ad libitum were treated with LPS 24 hr before anesthesia induction used for the perfusion study. As a control, saline was injected ip at the corresponding time before the experiments. The animal groups were expressed as control, LPS 1 hr, LPS 3 hr, LPS 6 hr, and LPS 24 hr.
Small intestinal perfusion. The small intestinal perfusion from the duodenum, and portal vein (PV) cannulation were prepared by the modified methods. Under isoflurane anesthesia (2%), the animal was placed […] on a recirculating heating block system (Summit Medical Systems, Bend, Oreg., USA) in order to maintain body temperature at 36-37° C. Prewarmed saline was infused via the right femoral vein at 1.08 ml/h using a Harvard infusion pump (Harvard Apparatus, Holliston, Mass., USA). The abdomen was incised, and the PV was cannulated with a polyethylene (PE)-50 tube attached with 23G needle and fixed by methylacrylate adhesive at the insertion site. The tube was filled with heparinized saline enabling repeated blood sampling. Samples of 0.2 ml PV blood were collected every 15 min, followed by flushing with 0.2 ml heparinized saline. A polyethylene tube (diameter 5 mm) filled with PBS was inserted through the forestomach and tied at 0.5 cm caudal from the pyloric ring. After bolus perfusion of 2-ml phosphate buffer saline (PBS, 10 mM, pH 7.4) into the duodenum from the tube, followed by stabilization for ˜30 min, the time was set as t=0. FD4 (0.1 mM) in 10-ml PBS was slowly perfused at t=0 min for 30 sec. Blood samples were collected into a 0.5-ml tubes containing 1-μl each of EDTA (0.5 M) and the dipeptidyl peptidase-4 (DPP4) inhibitor NVP-728 (1 mM), and immediately centrifuged at 5,000× g for 5 min, after which the plasma was stored on ice or at −80 ° C. until use. At 90 min, after collection of PV samples, arterial blood was taken from abdominal aorta, followed by euthanasia by thoracotomy.
Appearance of FD4 into the PV and arterial plasma was assessed by fluorescence intensity measurement using a multi-mode microplate reader (Synergy-2, BioTek Instruments, Inc., Winooski, VT, USA). Fluorescence intensity in t=0 sample as background was subtracted from the fluorescence values measured in other time point samples. FD4 content was calculated according to the standard curve generated each time of measurement.
Drug treatment for the intestinal perfusion study. The following drugs were administered at the time after LPS treatment: the GLP2R partial agonist/antagonist GLP-2(3-33) (1 mg/kg; 280 nmol/kg, ip) was given immediately after LPS treatment (0 hr after LPS treatment); GLP-2 (380 μg/kg; 100 nmol/kg, ip) was given 6 hr after LPS treatment; a stable GLP-2 analog TDG (50 μg/kg; 13.3 nmol/kg) was ip injected 0, 3, 6, or 12 hr after LPS treatment or iv injected at t=0 min just before the perfusion of FD4 solution (6 or 24 hr after LPS treatment). In acute experiments, TDG was iv injected at t=0 min (6 hr after LPS treatment) with or without the pretreatment of the selective IGF1 receptor (IGF1R) tyrosine kinase inhibitor AEW541 (0.1 mg/kg, iv), the selective EGF receptor (EGFR) tyrosine kinase inhibitor PD153035 (10 μg/kg, iv) or PG97-269 (1 mg/kg, iv) at t=−10 min, or the co-perfusion of L-NAME (0.1 mM, pf) with FD4 solution.

[1] = pig, in vivo; cited from earlier work
[2] = inhibitor iv at t=-10 min or co-perfused
[3] = inhibitor serosal before GLP-2 + NVP-728
[4] = LPS 6 hr model, GLP-2(3-33) 1 mg/kg ip immediately after LPS
[5] = LPS 24 hr model, GLP-2 380 μg/kg ip 6 hr after LPS

**Q.** With C[N+](C)(C)CCOC(N)=O [CCh, carbachol] as the molecule, how does the “OA/TCA-augmented LPS transport (t=30-45 min)” value (rat jejunal mucosa) read?
**A.** Its value is “further increased”.

**Q.** What about the “LPS transport at t=15 min (LPS alone, absence of OA/TCA)” value (rat jejunal mucosa) of the same molecule?
**A.** The value was “increased”.

**Q.** What does the source list for O=P(O)(O)OCC(O)CO (stereo not drawn) [GP, glycerol phosphate]?
**A.** OA/TCA-augmented LPS transport (t=30-45 min) (rat jejunal mucosa): further increased; LPS transport at t=15 min (LPS alone, absence of OA/TCA) (rat jejunal mucosa): no effect

**Q.** Which results are given for N#Cc1ccc(NCCNCC(=O)N2CCC[C@H]2C#N)nc1 [NVP-728]?
**A.** OA/TCA-augmented LPS transport (t=30-45 min) (rat jejunal mucosa): no effect; LPS transport at t=15 min (LPS alone, absence of OA/TCA) (rat jejunal mucosa): no effect

**Q.** For Nc1ncnc2c1c(-c1cccc(OCc3ccccc3)c1)cn2[C@H]1C[C@@H](CN2CCC2)C1 [NVP-AEW-541], which “TDG-induced inhibitory effect on PV FD4 levels” value (rat small intestine; [2]) is on record?
**A.** Its value is “no effect”.

**Q.** What does the source list for COc1cc2ncnc(Nc3cccc(Br)c3)c2cc1OC [PD153035]?
**A.** amount of LPS transport after addition of OA/TCA, in presence of GLP-2 + NVP-728 (rat jejunal mucosa; [3]): further increased; amount of LPS transport at t=15 min (prior to OA/TCA exposure), in presence of GLP-2 + NVP-728 (rat jejunal mucosa; [3]): increased; TDG-induced inhibitory effect on PV FD4 levels (rat small intestine; [2]): no effect; Arterial FD4 levels in LPS 6 hr + TDG 6 hr rats (rat small intestine; t=90 min, inhibitor iv at t=-10 min or co-perfused): not affected

**Q.** Which results are given for “GLP-2(3-33): GLP-2 receptor partial agonist/antagonist; truncated GLP-2 peptide missing the first 2 amino acids (DGSFSDEMNTILDNLATRDFINWLIQTKITD; Glucagon-like peptide 2; UniProt P06883 148-178, looked up, fragment)”?
**A.** OA/TCA-augmented LPS transport (t=30-45 min) (rat jejunal mucosa): no effect; LPS transport at t=15 min (LPS alone, absence of OA/TCA) (rat jejunal mucosa): no effect; PV FD4 levels at t=60-90 min (rat small intestine; [4]): further increased; arterial FD4 levels at t=90 min (rat small intestine; [4]): further increased

**Q.** With “HADGSFSDEMNTILDNLATRDFINWLIQTKITD [GLP-2]” as the molecule, how does the “LPS transport during OA/TCA exposure period, GLP-2 with NVP-728” value (rat jejunal mucosa; GLP-2 100 nM + DPP4 inhibitor NVP-728 10 μM, serosal) read?
**A.** Its value is “inhibited”.

**Q.** And the “OA/TCA-augmented LPS transport (t=30-45 min)” value (rat jejunal mucosa)?
**A.** Its value is “no effect”.

**Q.** And the “LPS transport at t=15 min (LPS alone, absence of OA/TCA)” value (rat jejunal mucosa)?
**A.** Its value is “no effect”.

**Q.** What about the “PV FD4 levels” value (rat small intestine; [5]) of the same molecule?
**A.** The value was “reduced”.

**Q.** What about the “arterial FD4 levels” value (rat small intestine; [5]) of the same molecule?
**A.** Its value is “reduced”.

**Q.** And the “t1/2 of exogenous GLP-2” value [1]?
**A.** The value was roughly 7 min.
